# Test results published in US6737383B1, “Herbicidal oxadiazolidines” (priority 1999, dated 2004).
# Assays:
# purple nutsedge = assay: Test B pre/postemergence purple nutsedge; assay type: in vivo, Cyperus rotundus
# In short: (§1)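 Herbicidal effect was estimated by eye on a ten-point control scale after plants spent twelve to sixteen days in a greenhouse following soil or foliar treatment. Foliar sprays targeted plants at one to four leaves; all doses were formulated in a non-phytotoxic solvent with surfactant.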
# duck salad = assay: Test B flood test duck salad; assay type: in vivo, Heteranthera limosa
# In short: (§2)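 Read-out is a visual response score from 0 (no effect) to 10 (complete control), assigned by comparison with untreated controls. Treatment was applied at the 2-leaf stage, and plants stayed in the greenhouse for twelve to sixteen days before scoring.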
# soybean = assay: Test B pre/postemergence soybean; assay type: in vivo, Glycine max
# In short: as §1
# bedstraw = assay: Test B pre/postemergence bedstraw; assay type: in vivo, Galium aparine
# In short: as §1
# blackgrass = assay: Test B pre/postemergence blackgrass; assay type: in vivo, Alopecurus myosuroides
# In short: as §1
# wheat = assay: Test B pre/postemergence wheat; assay type: in vivo, Triticum aestivum
# In short: as §1
# velvetleaf = assay: Test B pre/postemergence velvetleaf; assay type: in vivo, Abutilon theophrasti
# In short: as §1
# rape = assay: Test B pre/postemergence rape; assay type: in vivo, Brassica napus
# In short: as §1
# corn = assay: Test B pre/postemergence corn; assay type: in vivo, Zea mays
# In short: as §1
# morningglory = assay: Test B pre/postemergence morningglory; assay type: in vivo, Ipomoea hederacea
# In short: as §1
# surinam grass = assay: Test B pre/postemergence surinam grass; assay type: in vivo, Brachiaria decumbens
# In short: as §1
# rice = assay: Test B flood test rice; assay type: in vivo, Oryza sativa
# In short: as §2
# giant foxtail = assay: Test B pre/postemergence giant foxtail; assay type: in vivo, Setaria faberii
# In short: as §1
# wild oat = assay: Test B pre/postemergence wild oat; assay type: in vivo, Avena fatua
# In short: as §1
# smallflower flatsedge = assay: Test B flood test smallflower flatsedge; assay type: in vivo, Cyperus difformis
# In short: as §2
# crabgrass = assay: Test B pre/postemergence crabgrass; assay type: in vivo, Digitaria sanguinalis
# In short: as §1
# [1] = Preemergence, Rate 62 g/ha, scale of 0 to 10 where 0 is no effect and 10 is complete control
# [2] = Preemergence, Rate 250 g/ha, scale of 0 to 10 where 0 is no effect and 10 is complete control
# [3] = Preemergence, Rate 500 g/ha, scale of 0 to 10 where 0 is no effect and 10 is complete control
# [4] = Rate 62 g/ha, Postemergence, scale 0 to 10 (0 no effect, 10 complete control)
# [5] = Rate 125 g/ha, Postemergence, scale of 0 to 10 where 0 is no effect and 10 is complete control
# [6] = Rate 250 g/ha, Postemergence, scale of 0 to 10 where 0 is no effect and 10 is complete control
# [7] = Rate 62 g/ha, headed Pre-emergence (flood test species), scale 0 to 10 (0 no effect, 10 complete control)
# [8] = Rate 125 g/ha, Pre-emergence, flood test species, scale 0 to 10 where 0 is no effect and 10 is complete control
# [9] = Rate 250 g/ha, Pre-emergence, flood-test species, scale 0 to 10, 0 is no effect, 10 is complete control
# [10] = Rate 500 g/ha, Pre-emergence, flood test species, scale 0 to 10 (0 no effect, 10 complete control)
# [11] = Rate 500 g/ha, Postemergence, scale 0 to 10, 0 no effect, 10 complete control
structure (smiles),measurement,setting,value
CC(C)N(C(=O)n1oc(=O)n(Cc2ccccc2-c2ccccc2)c1=O)c1ccc(F)cc1 [Compound 313],Nutsedge plant response rating,purple nutsedge; [1],0
same,Nutsedge plant response rating (0 to 10 scale),"purple nutsedge; Preemergence, Rate 125 g/ha",0
same,Nutsedge plant response rating,purple nutsedge; [2],0
same,Nutsedge plant response rating,purple nutsedge; [3],0
same,Nutsedge plant response rating,purple nutsedge; [4],0
same,Nutsedge plant response rating,purple nutsedge; [5],0
same,"Plant response rating, Nutsedge",purple nutsedge; [6],0
same,Ducksalad plant response rating,duck salad; [7],0
same,Ducksalad plant response rating,duck salad; [8],0
same,Ducksalad plant response rating,duck salad; [9],0
same,Ducksalad plant response rating,duck salad; [10],0
same,Soybean plant response rating,soybean; [1],0
same,Soybean plant response rating (0 to 10 scale),"soybean; Preemergence, Rate 125 g/ha",0
same,Soybean plant response rating,soybean; [2],0
same,Soybean plant response rating,soybean; [3],0
same,Soybean plant response rating,soybean; [4],1
same,Soybean plant response rating,soybean; [5],2
same,"Plant response rating, Soybean",soybean; [6],3
same,Bedstraw plant response rating,bedstraw; [1],0
same,Bedstraw plant response rating,bedstraw; [2],0
same,Bedstraw plant response rating,bedstraw; [3],0
same,Bedstraw plant response rating,bedstraw; [4],5
same,Bedstraw plant response rating,bedstraw; [5],7
same,"Plant response rating, Bedstraw",bedstraw; [6],7
same,Blackgrass plant response rating,blackgrass; [1],0
same,Blackgrass plant response rating (0 to 10 scale),"blackgrass; Preemergence, Rate 125 g/ha",0
same,Blackgrass plant response rating,blackgrass; [2],0
same,Blackgrass plant response rating,blackgrass; [3],0
same,Blackgrass plant response rating,blackgrass; [4],0
same,Blackgrass plant response rating,blackgrass; [5],0
same,"Plant response rating, Blackgrass",blackgrass; [6],0
same,Blackgrass plant response rating,blackgrass; [11],0
same,Wheat plant response rating,wheat; [1],0
same,Wheat plant response rating (0 to 10 scale),"wheat; Preemergence, Rate 125 g/ha",0
same,Wheat plant response rating,wheat; [2],0
same,Wheat plant response rating,wheat; [3],0
same,Wheat plant response rating,wheat; [4],0
same,Wheat plant response rating,wheat; [5],0
same,"Plant response rating, Wheat",wheat; [6],0
same,Velvetleaf plant response rating,velvetleaf; [1],0
same,Velvetleaf plant response rating (0 to 10 scale),"velvetleaf; Preemergence, Rate 125 g/ha",0
same,Velvetleaf plant response rating,velvetleaf; [2],0
same,Velvetleaf plant response rating,velvetleaf; [3],0
same,Velvetleaf plant response rating,velvetleaf; [4],0
same,Velvetleaf plant response rating,velvetleaf; [5],0
same,"Plant response rating, Velvetleaf",velvetleaf; [6],0
same,Rape plant response rating,rape; [1],0
same,Rape plant response rating (0 to 10 scale),"rape; Preemergence, Rate 125 g/ha",0
same,Rape plant response rating,rape; [2],0
same,Rape plant response rating,rape; [3],0
same,Rape plant response rating,rape; [4],0
same,Rape plant response rating,rape; [5],0
same,"Plant response rating, Rape",rape; [6],0
same,Corn plant response rating,corn; [1],0
same,Corn plant response rating (0 to 10 scale),"corn; Preemergence, Rate 125 g/ha",0
same,Corn plant response rating,corn; [2],0
same,Corn plant response rating,corn; [3],0
same,Corn plant response rating,corn; [4],0
same,Corn plant response rating,corn; [5],0
same,"Plant response rating, Corn",corn; [6],0
same,Corn plant response rating,corn; [11],0
same,Morningglory plant response rating,morningglory; [1],0
same,Morningglory plant response rating (0 to 10 scale),"morningglory; Preemergence, Rate 125 g/ha",0
same,Morningglory plant response rating,morningglory; [2],0
same,Morningglory plant response rating,morningglory; [3],0
same,Morningglory plant response rating,morningglory; [4],2
same,Morningglory plant response rating,morningglory; [5],3
same,"Plant response rating, Morningglory",morningglory; [6],3
same,B. signalgrass plant response rating,surinam grass; [1],0
same,"B. signalgrass plant response rating (0 to 10 scale, 0 is no effect, 10 is complete control)","surinam grass; Preemergence, Rate 125 g/ha",0
same,B. signalgrass plant response rating,surinam grass; [2],0
same,B. signalgrass plant response rating,surinam grass; [3],0
same,B. signalgrass plant response rating,surinam grass; [4],0
same,B. signalgrass plant response rating,surinam grass; [5],0
same,"Plant response rating, B. signalgrass",surinam grass; [6],0
same,B. signalgrass plant response rating,surinam grass; [11],0
same,Rice plant response rating,rice; [7],0
same,Rice plant response rating,rice; [8],0
same,Rice plant response rating,rice; [9],0
same,Rice plant response rating,rice; [10],0
same,Giant foxtail plant response rating,giant foxtail; [1],0
same,Giant foxtail plant response rating (0 to 10 scale),"giant foxtail; Preemergence, Rate 125 g/ha",0
same,Giant foxtail plant response rating,giant foxtail; [2],0
same,Giant foxtail plant response rating,giant foxtail; [3],0
same,Giant foxtail plant response rating,giant foxtail; [4],0
same,Giant foxtail plant response rating,giant foxtail; [5],0
same,"Plant response rating, Giant foxtail",giant foxtail; [6],0
same,Wild oats plant response rating,wild oat; [1],0
same,Wild oats plant response rating (0 to 10 scale),"wild oat; Preemergence, Rate 125 g/ha",0
same,Wild oats plant response rating,wild oat; [2],0
same,Wild oats plant response rating,wild oat; [3],0
same,Wild oats plant response rating,wild oat; [4],0
same,Wild oats plant response rating,wild oat; [5],0
same,"Plant response rating, Wild oats",wild oat; [6],0
same,S. Flatsedge plant response rating,smallflower flatsedge; [7],0
same,S. Flatsedge plant response rating,smallflower flatsedge; [8],0
same,S. Flatsedge plant response rating,smallflower flatsedge; [9],0
same,S. Flatsedge plant response rating,smallflower flatsedge; [10],0
same,Crabgrass plant response rating,crabgrass; [1],0
same,Crabgrass plant response rating (0 to 10 scale),"crabgrass; Preemergence, Rate 125 g/ha",0
same,Crabgrass plant response rating,crabgrass; [2],0
same,Crabgrass plant response rating,crabgrass; [3],0
same,Crabgrass plant response rating,crabgrass; [4],0
same,Crabgrass plant response rating,crabgrass; [5],0
same,"Plant response rating, Crabgrass",crabgrass; [6],0
CC(C)N(C(=O)n1oc(=O)n(Cc2nnsc2Cl)c1=O)c1ccc(F)cc1F [Compound 320],Nutsedge plant response rating,purple nutsedge; [1],0
same,Nutsedge plant response rating (0 to 10 scale),"purple nutsedge; Preemergence, Rate 125 g/ha",0
same,Nutsedge plant response rating,purple nutsedge; [2],0
same,Nutsedge plant response rating,purple nutsedge; [3],0
same,Nutsedge plant response rating,purple nutsedge; [4],0
same,Nutsedge plant response rating,purple nutsedge; [5],0
same,"Plant response rating, Nutsedge",purple nutsedge; [6],0
same,Ducksalad plant response rating,duck salad; [7],0
same,Ducksalad plant response rating,duck salad; [8],0
same,Ducksalad plant response rating,duck salad; [9],0
same,Ducksalad plant response rating,duck salad; [10],0
same,Soybean plant response rating,soybean; [1],0
same,Soybean plant response rating (0 to 10 scale),"soybean; Preemergence, Rate 125 g/ha",0
same,Soybean plant response rating,soybean; [2],0
same,Soybean plant response rating,soybean; [3],0
same,Soybean plant response rating,soybean; [4],2
same,Soybean plant response rating,soybean; [5],3
same,"Plant response rating, Soybean",soybean; [6],3
same,Bedstraw plant response rating,bedstraw; [1],0
same,Bedstraw plant response rating,bedstraw; [3],0
same,Bedstraw plant response rating,bedstraw; [4],0
same,Bedstraw plant response rating,bedstraw; [5],0
same,Blackgrass plant response rating,blackgrass; [1],0
same,Blackgrass plant response rating (0 to 10 scale),"blackgrass; Preemergence, Rate 125 g/ha",2
same,Blackgrass plant response rating,blackgrass; [2],5
same,Blackgrass plant response rating,blackgrass; [3],6
same,Blackgrass plant response rating,blackgrass; [4],0
same,Blackgrass plant response rating,blackgrass; [5],0
same,"Plant response rating, Blackgrass",blackgrass; [6],0
same,Blackgrass plant response rating,blackgrass; [11],0
same,Wheat plant response rating,wheat; [1],0
same,Wheat plant response rating (0 to 10 scale),"wheat; Preemergence, Rate 125 g/ha",0
same,Wheat plant response rating,wheat; [2],0
same,Wheat plant response rating,wheat; [3],0
same,Wheat plant response rating,wheat; [4],0
same,Wheat plant response rating,wheat; [5],0
same,"Plant response rating, Wheat",wheat; [6],0
same,Velvetleaf plant response rating,velvetleaf; [1],0
same,Velvetleaf plant response rating (0 to 10 scale),"velvetleaf; Preemergence, Rate 125 g/ha",0
same,Velvetleaf plant response rating,velvetleaf; [2],0
same,Velvetleaf plant response rating,velvetleaf; [3],0
same,Velvetleaf plant response rating,velvetleaf; [4],0
same,Velvetleaf plant response rating,velvetleaf; [5],0
same,"Plant response rating, Velvetleaf",velvetleaf; [6],0
same,Rape plant response rating,rape; [1],0
same,Rape plant response rating (0 to 10 scale),"rape; Preemergence, Rate 125 g/ha",0
same,Rape plant response rating,rape; [2],0
same,Rape plant response rating,rape; [3],0
same,Rape plant response rating,rape; [4],0
same,Rape plant response rating,rape; [5],3
same,"Plant response rating, Rape",rape; [6],3
same,Corn plant response rating,corn; [1],0
same,Corn plant response rating (0 to 10 scale),"corn; Preemergence, Rate 125 g/ha",0
same,Corn plant response rating,corn; [2],0
same,Corn plant response rating,corn; [3],0
same,Corn plant response rating,corn; [4],0
same,Corn plant response rating,corn; [5],0
same,"Plant response rating, Corn",corn; [6],0
same,Corn plant response rating,corn; [11],0
same,Morningglory plant response rating,morningglory; [1],0
same,Morningglory plant response rating (0 to 10 scale),"morningglory; Preemergence, Rate 125 g/ha",0
same,Morningglory plant response rating,morningglory; [2],0
same,Morningglory plant response rating,morningglory; [3],0
same,Morningglory plant response rating,morningglory; [4],1
same,Morningglory plant response rating,morningglory; [5],1
same,"Plant response rating, Morningglory",morningglory; [6],3
same,B. signalgrass plant response rating,surinam grass; [1],0
same,"B. signalgrass plant response rating (0 to 10 scale, 0 is no effect, 10 is complete control)","surinam grass; Preemergence, Rate 125 g/ha",1
same,B. signalgrass plant response rating,surinam grass; [2],2
same,B. signalgrass plant response rating,surinam grass; [3],3
same,B. signalgrass plant response rating,surinam grass; [4],0
same,B. signalgrass plant response rating,surinam grass; [5],0
same,"Plant response rating, B. signalgrass",surinam grass; [6],0
same,B. signalgrass plant response rating,surinam grass; [11],0
same,Rice plant response rating,rice; [7],0
same,Rice plant response rating,rice; [8],0
same,Rice plant response rating,rice; [9],0
same,Rice plant response rating,rice; [10],0
same,Giant foxtail plant response rating,giant foxtail; [1],0
same,Giant foxtail plant response rating,giant foxtail; [2],6
same,Giant foxtail plant response rating,giant foxtail; [3],7
same,Giant foxtail plant response rating,giant foxtail; [4],0
same,Giant foxtail plant response rating,giant foxtail; [5],0
same,"Plant response rating, Giant foxtail",giant foxtail; [6],0
same,Wild oats plant response rating,wild oat; [1],0
same,Wild oats plant response rating (0 to 10 scale),"wild oat; Preemergence, Rate 125 g/ha",0
same,Wild oats plant response rating,wild oat; [2],0
same,Wild oats plant response rating,wild oat; [3],0
same,Wild oats plant response rating,wild oat; [4],0
same,Wild oats plant response rating,wild oat; [5],0
same,"Plant response rating, Wild oats",wild oat; [6],0
same,S. Flatsedge plant response rating,smallflower flatsedge; [7],0
same,S. Flatsedge plant response rating,smallflower flatsedge; [8],0
same,S. Flatsedge plant response rating,smallflower flatsedge; [9],0
same,S. Flatsedge plant response rating,smallflower flatsedge; [10],0
same,Crabgrass plant response rating,crabgrass; [1],2
same,Crabgrass plant response rating (0 to 10 scale),"crabgrass; Preemergence, Rate 125 g/ha",3
same,Crabgrass plant response rating,crabgrass; [2],3
same,Crabgrass plant response rating,crabgrass; [3],7
same,Crabgrass plant response rating,crabgrass; [4],0
same,Crabgrass plant response rating,crabgrass; [5],0
same,"Plant response rating, Crabgrass",crabgrass; [6],0
